Target: T1, Dimer of Gag-Pol polyprotein [489-587] (Human immunodeficiency virus 1, UniProt P12497)
T1 construct: 489-587
Assay: Protease Inhibition Assay
Protocol: The inhibitory activities of the compounds toward HIV-1 PR were determined by sodium dodecyl sulfate-polyacrylamide gel electrophoresis (SDS-PAGE) assay. The IC50 values of active compounds were determined using the partially purified protease and the synthetic substrate Ac-Ser-Gln-AsnTyr-Pro-Ile-Val-NH2.

## CC(C)(C)NC(=O)[C@@H]1C[C@H](Cl)CN1C(=O)[C@@H](O)[C@H](Cc1ccccc1)NC(=O)OC1CCSC1 (stereo partly drawn) [thiolan-3-yl N-[(2S,3S)-4-[(2S,4S)-2-(tert-butylcarbamoyl)-4-chloropyrrolidin-1-yl]-3-hydroxy-4-oxo-1-phenylbutan-2-yl]carbamate]
  IC50: 7.7 nM
